{
  "source": "patent US10047081B2",
  "about": "“BACE1 inhibitors” (Hoffmann-La Roche Inc., priority 2015, dated 2018)",
  "data": [
    {"target": "T1, BACE1 (Homo sapiens, UniProt P56817)", "T1 construct": "endogenous in cells; host or cells: HEK293 APP cells", "T1 sequence (P56817 46-501)": "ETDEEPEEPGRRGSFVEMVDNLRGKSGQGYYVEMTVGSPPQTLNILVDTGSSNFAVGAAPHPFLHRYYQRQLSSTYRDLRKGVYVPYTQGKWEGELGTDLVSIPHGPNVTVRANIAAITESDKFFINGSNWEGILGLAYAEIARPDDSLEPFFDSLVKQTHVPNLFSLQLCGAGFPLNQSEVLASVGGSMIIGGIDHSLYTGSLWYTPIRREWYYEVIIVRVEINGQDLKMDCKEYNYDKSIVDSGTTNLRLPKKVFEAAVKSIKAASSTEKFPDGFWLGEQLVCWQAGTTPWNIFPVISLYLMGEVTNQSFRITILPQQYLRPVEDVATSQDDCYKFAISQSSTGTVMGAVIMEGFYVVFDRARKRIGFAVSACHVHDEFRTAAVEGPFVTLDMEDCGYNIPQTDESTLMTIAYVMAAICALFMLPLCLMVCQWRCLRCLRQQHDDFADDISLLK", "experiment": "Cellular Aβ-lowering assay (Abeta 40 AlphaLISA, HEK293 APP cells)", "assay_type": "cell-based", "details": "18-20 hrs incubation, Aβ 40 in culture supernatant, read-out: BACE1 cell act. Aβ40 IC50", "description": "Cellular Aβ-Lowering Assay:\nThe Abeta 40 AlphaLISA Assay can be used. The HEK293 APP cells were seeded in 96 well Microtiter plates in cell culture medium (Iscove's, plus 10% (v/v) fetal bovine serum, penicillin/streptomycin) to about 80% confluency and the compounds were added at a 3× concentration in ⅓ volume of culture medium (final DMSO concentration was kept at 1% v/v). After 18-20 hrs incubation at 37° C. and 5% CO2 in a humidified incubator, the culture supernatants were harvested for the determination of Aβ 40 concentrations using Perkin-Elmer Human Amyloid beta 1-40 (high specificity) Kit (Cat#AL275C).\nIn a Perkin-Elmer White Optiplate-384 (Cat#6007290), 2 ul culture supernatants were combined with 2 μl of a 10× AlphaLISA Anti-hAβAcceptor beads + Biotinylated Antibody Anti-Aβ 1-40 Mix (50 μg/mL/5 nM). After 1 hour room temperature incubation, 16 μl of a 1.25× preparation of Streptavidin (SA) Donor beads (25 μg/mL) were added and incubated for 30 minutes in the Dark. Light Emission at 615 nm was then recorded using EnVision-Alpha Reader. Levels of Aβ 40 in the culture supernatants were calculated as percentage of maximum signal (cells treated with 1% DMSO without inhibitor). The IC50 values were calculated using the Excel XLfit software.", "units": {"IC50": "µM"}, "values": [
      {"smiles": "CN=[S@]1(=O)C[C@@](CF)(c2cc(-c3cc(-c4cnc(OC)cn4)no3)ccc2F)N=C(N)C1(C)C", "note": "[Example 2, (1S,3S)-5-amino-3-(2-fluoro-5-(3-(5-methoxypyrazin-2-yl)isoxazol-5-yl)phenyl)-3-(fluoromethyl)-6,6-dimethyl-1-(methylimino)-3,6-dihydro-2H-1,4-thiazine 1-oxide 2,2,2-trifluoroacetate]", "IC50": 0.141},
      {"smiles": "CN=[S@@]1(=O)C[C@@](CF)(c2cc(-c3cc(-c4ncc(Cl)cn4)no3)ccc2F)N=C(N)C1(C)C", "note": "[Example 3, (1R,3S)-5-amino-3-(5-(3-(5-chloropyrimidin-2-yl)isoxazol-5-yl)-2-fluorophenyl)-3-(fluoromethyl)-6,6-dimethyl-1-(methylimino)-3,6-dihydro-2H-1,4-thiazine 1-oxide 2,2,2-trifluoroacetate]", "IC50": 0.089},
      {"smiles": "CN=[S@@]1(=O)C[C@@](CF)(c2cc(-c3cc(-c4cnc(OCC(F)F)cn4)no3)ccc2F)N=C(N)C1(C)C", "note": "[Example 4, (1R,3S)-5-amino-3-(5-(3-(5-(2,2-difluoroethoxy)pyrazin-2-yl)isoxazol-5-yl)-2-fluorophenyl)-3-(fluoromethyl)-6,6-dimethyl-1-(methylimino)-3,6-dihydro-2H-1,4-thiazine 1-oxide 2,2,2-trifluoroacetate]", "IC50": 0.111},
      {"smiles": "CN=[S@@]1(=O)C[C@@](C)(c2cc(-c3cc(-c4ncc(C#N)cn4)no3)ccc2F)N=C(N)C1(C)C", "note": "[Example 8, 2-(5-(3-((1R,3R)-5-amino-3,6,6-trimethyl-1-(methylimino)-1-oxido-3,6-dihydro-2H-1,4-thiazin-3-yl)-4-fluorophenyl)isoxazol-3-yl)pyrimidine-5-carbonitrile 2,2,2-trifluoroacetate]", "IC50": 0.022},
      {"smiles": "CN=[S@@]1(=O)C[C@@](C)(c2cc(-c3cn(-c4ccc(Cl)cn4)nn3)ccc2F)N=C(N)C1(C)C", "note": "[Example 9, (1R,3R)-5-amino-3-(5-(1-(5-chloropyridin-2-yl)-1H-1,2,3-triazol-4-yl)-2-fluorophenyl)-3,6,6-trimethyl-1-(methylimino)-3,6-dihydro-2H-1,4-thiazine 1-oxide 2,2,2-trifluoroacetate]", "IC50": 0.017},
      {"smiles": "CN=[S@@]1(=O)C[C@@](C)(c2cc(-c3cn(-c4ccc(C#N)cn4)nn3)ccc2F)N=C(N)C1(C)C", "note": "[Example 10, 6-(4-(3-((1R,3R)-5-amino-3,6,6-trimethyl-1-(methylimino)-1-oxido-3,6-dihydro-2H-1,4-thiazin-3-yl)-4-fluorophenyl)-1H-1,2,3-triazol-1-yl)nicotinonitrile 2,2,2-trifluoroacetate]", "IC50": 0.02},
      {"smiles": "CN=[S@]1(=O)C[C@@](C)(c2cc(-c3cc(-c4cnc(OCC(F)F)cn4)no3)ccc2F)N=C(N)C1(C)C", "note": "[Example 11, (1S,3R)-5-amino-3-(5-(3-(5-(2,2-difluoroethoxy)pyrazin-2-yl)isoxazol-5-yl)-2-fluorophenyl)-3,6,6-trimethyl-1-(methylimino)-3,6-dihydro-2H-1,4-thiazine 1-oxide 2,2,2-trifluoroacetate]", "IC50": 0.051},
      {"smiles": "CN=[S@]1(=O)C[C@@](C)(c2cc(-c3cc(-c4ncc(Cl)cn4)no3)ccc2F)N=C(N)C1(C)C", "note": "[Example 12, (1S,3R)-5-amino-3-(5-(3-(5-chloropyrimidin-2-yl)isoxazol-5-yl)-2-fluorophenyl)-3,6,6-trimethyl-1-(methylimino)-3,6-dihydro-2H-1,4-thiazine 1-oxide 2,2,2-trifluoroacetate]", "IC50": 0.019},
      {"smiles": "CN=[S@]1(=O)C[C@@](CF)(c2cc(-c3cc(-c4ncc(OC)cn4)no3)ccc2F)N=C(N)C1(C)C", "note": "[Example 13, (1S,3S)-5-amino-3-(2-fluoro-5-(3-(5-methoxypyrimidin-2-yl)isoxazol-5-yl)phenyl)-3-(fluoromethyl)-6,6-dimethyl-1-(methylimino)-3,6-dihydro-2H-1,4-thiazine 1-oxide]", "IC50": 0.106}
    ]}
  ]
}
